Where two headings read alike, the source gives them in different places.

The test system of test [1] is STAT5 phosphorylation by GMCSF in TF-1 cells. Nature of the test: JAK cellular assay: STAT5 phosphorylation by GMCSF in TF-1 cells (HTRF). The test is classed as cell-based. The following applies: Homo sapiens. The method, boiled down: (§1)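 TF-1 cells starved overnight in low-serum OptiMEM, then 120,000/well in RPMI, preincubated with compound 30 min at 37 °C (0.2% DMSO final). Stimulation 20 min with IL-6 30 ng/ml (pSTAT3) or GMCSF 5 ng/ml (pSTAT5); lysate phospho-STAT by HTRF, unstimulated background subtracted.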
(In TR-FRET formats the signal depends on donor and acceptor labels being close together.)

Test [2] has as its system IFN-γ production in NK 92 cells by IL-12. Nature of the test: IFN-γ production in NK 92 cells by IL-12 (ELISA). As to conditions: NK92, IFN-γ detection from cell supernatants, read-out: Cell based IC50 (μM) NK-92/IL-12*. The procedure: NK 92 cells were cultured in medium without IL-2 for overnight. Next day, 5000 cells per well NK 92 cells were seeded in a 96 well plate. Compounds were added to cells and incubated for 1 hour. Later IL-12, 10 U/ml was added to cells and incubated for overnight. Supernatant was collected from the wells and IFN-7 secretion was measured by using human IFN-7 ELISA kit. Absorbance was measured at 450 nm in BMG FLUOstar. Background signal obtained from cells which were not activated with cytokines, was subtracted from vehicle controls and compound treated wells.
A general note: ELISA stands for enzyme-linked immunosorbent assay.

Test [3] concerns STAT3 phosphorylation by IL-6 in TF-1 cells. The experiment in a line: JAK cellular assay: STAT3 phosphorylation by IL-6 in TF-1 cells (HTRF). The test is classed as cell-based. The following applies: Homo sapiens. The essentials:
as §1

For test [4], the system named is STAT5 phosphorylation by IL-2 in HT-2 cells. Nature of the test: STAT5 phosphorylation by IL-2 in HT-2 cells (HTRF). The test is classed as cell-based. The method, boiled down: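 Starved HT-2 cells (120,000/well) were preincubated 30 min at 37 °C with compound (0.2% DMSO), then stimulated 20 min with human IL-2 (50 U/ml). pSTAT5 in lysates measured by HTRF, with unstimulated-cell background subtracted.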

The test system of test [5] is Imiquimod induced dermatitis in mice. Nature of the test: Mouse model of Imiquimod induced psoriasis. The following applies: 3% topical, QD; IMQ induced psoriasis, mice. The test is classed as in vivo, Female BALB/c mice. How it is done: Imiquimod (IMQ) induced dermatitis closely resembles human psoriasis lesions not only with regard to phenotypic and histological characteristics but also in the development of the lesions. IMQ is a ligand for toll-like receptor 7 (TLR7) and TLR8, and is a potent immune activator. […] Migration of activated dermal dendritic cells to lymph nodes in skin triggers a sequence of events leading to late phase of psoriasis. Compounds described herein are tested for JAK inhibition driven efficacy in Imiquimod induced dermatitis in mice.
Female BALB/c mice were topically dosed with 3% cream formulation containing test compounds. After four hours of test compound administration, 5% Imiquimod was applied on back skin and right ear for five days. On day 6, post dosing with test compounds, the severity of psoriasis was monitored and graded following Psoriasis Area and Severity Index (PASI). Efficacies of the compounds were evaluated based on PASI score. Redness, thickness and scaling of back skin and ear were assessed among the groups for scoring.

Test [6] concerns collagen induced mouse arthritis model. The experiment in a line: Mouse model of rheumatoid arthritis (collagen induced arthritis). The test is classed as in vivo. As to conditions: orally dosed, QD for 21 days; reference filgotinib. The text has this:
Rheumatoid arthritis (RA) is an autoimmune disease that can cause joint pain and damage throughout the body. Several cytokines such as IL-6 and IFN-γ activate the Janus kinase/signal transducers and activators of transcription (JAK/STAT) pathway. Inhibition of JAK/STAT pathway is considered as one of the therapeutic options for treatment of rheumatoid arthritis. Rodent models of arthritis can be used to evaluate the therapeutic potential of compounds dosed preventatively or therapeutically. These models include but are not limited to mouse or rat collagen-induced arthritis, rat adjuvant-induced arthritis, and collagen antibody-induced arthritis.
Compounds described herein are tested for JAK/STAT pathway inhibition driven efficacy in collagen induced mouse arthritis model. Compounds were orally dosed, QD for 21 days and at the end of the study, clinical symptoms, body weight and histopathology of ankle and paws were measured. Arthritis score was calculated for the compounds as well as reference standard, filgotinib.

The target in another test is T1, Recombinant JAK3 (Homo sapiens, UniProt P52333).
T1 construct: purchased Carna Biosciences
T1 sequence (P52333 1-1124): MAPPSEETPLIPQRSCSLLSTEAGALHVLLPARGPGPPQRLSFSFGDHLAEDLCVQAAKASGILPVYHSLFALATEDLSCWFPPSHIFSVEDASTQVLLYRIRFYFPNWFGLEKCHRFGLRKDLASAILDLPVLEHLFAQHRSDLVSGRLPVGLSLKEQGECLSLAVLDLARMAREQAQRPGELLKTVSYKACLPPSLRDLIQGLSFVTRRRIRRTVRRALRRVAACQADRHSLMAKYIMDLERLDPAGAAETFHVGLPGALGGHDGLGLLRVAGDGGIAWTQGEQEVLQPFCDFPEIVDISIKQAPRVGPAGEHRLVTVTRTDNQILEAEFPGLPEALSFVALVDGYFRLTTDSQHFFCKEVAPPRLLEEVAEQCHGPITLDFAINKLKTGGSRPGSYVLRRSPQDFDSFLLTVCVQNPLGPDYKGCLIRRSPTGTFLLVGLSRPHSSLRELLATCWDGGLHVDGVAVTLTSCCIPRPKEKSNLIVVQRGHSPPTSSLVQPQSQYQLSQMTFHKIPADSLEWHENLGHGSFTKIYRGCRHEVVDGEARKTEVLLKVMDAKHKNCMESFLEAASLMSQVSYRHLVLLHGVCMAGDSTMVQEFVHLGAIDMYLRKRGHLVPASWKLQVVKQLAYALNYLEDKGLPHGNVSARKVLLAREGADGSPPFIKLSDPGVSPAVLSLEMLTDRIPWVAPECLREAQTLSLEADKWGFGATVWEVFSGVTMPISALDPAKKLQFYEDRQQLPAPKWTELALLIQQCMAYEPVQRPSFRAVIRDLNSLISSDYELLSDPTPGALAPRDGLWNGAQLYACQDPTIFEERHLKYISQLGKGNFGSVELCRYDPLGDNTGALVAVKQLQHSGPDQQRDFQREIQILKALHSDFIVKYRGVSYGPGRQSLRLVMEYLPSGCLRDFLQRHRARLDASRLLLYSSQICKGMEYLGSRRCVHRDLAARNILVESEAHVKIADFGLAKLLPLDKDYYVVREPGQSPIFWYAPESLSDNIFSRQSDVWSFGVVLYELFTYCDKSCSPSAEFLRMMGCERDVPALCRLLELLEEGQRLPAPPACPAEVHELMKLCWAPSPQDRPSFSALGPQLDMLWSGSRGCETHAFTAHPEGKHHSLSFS
Nature of the test: JAK biochemical assay (LANCE Ultra TR-FRET), JAK3. The essentials:
(§2)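 Kinase reactions ran in buffer of 50 mM HEPES pH 7.5 with 1 mM EGTA, 10 mM MgCl2, 2 mM DTT and 0.01% Tween-20, using recombinant enzyme. Phosphorylated ULight substrate was detected by TR-FRET, and compound effect expressed as % inhibition against vehicle.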

A further test addresses T2, Recombinant TYK2 (Homo sapiens, UniProt P29597).
T2 construct: purchased Carna Biosciences
The experiment in a line: JAK biochemical assay (LANCE Ultra TR-FRET), TYK2. The method, boiled down:
as §2

Another test deals with T3, Recombinant JAK1 (Homo sapiens, UniProt P23458).
T3 construct: purchased Carna Biosciences
Nature of the test: JAK biochemical assay (LANCE Ultra TR-FRET), JAK1. The essentials: as §2

Another test addresses T4, Recombinant JAK2 (Homo sapiens, UniProt O60674).
T4 construct: purchased Carna Biosciences
The experiment in a line: JAK biochemical assay (LANCE Ultra TR-FRET), JAK2. The following applies: read-out: Biochemical IC50 (nM) JAK2. The essentials:
as §2

T2 sequence (P29597 whole entry): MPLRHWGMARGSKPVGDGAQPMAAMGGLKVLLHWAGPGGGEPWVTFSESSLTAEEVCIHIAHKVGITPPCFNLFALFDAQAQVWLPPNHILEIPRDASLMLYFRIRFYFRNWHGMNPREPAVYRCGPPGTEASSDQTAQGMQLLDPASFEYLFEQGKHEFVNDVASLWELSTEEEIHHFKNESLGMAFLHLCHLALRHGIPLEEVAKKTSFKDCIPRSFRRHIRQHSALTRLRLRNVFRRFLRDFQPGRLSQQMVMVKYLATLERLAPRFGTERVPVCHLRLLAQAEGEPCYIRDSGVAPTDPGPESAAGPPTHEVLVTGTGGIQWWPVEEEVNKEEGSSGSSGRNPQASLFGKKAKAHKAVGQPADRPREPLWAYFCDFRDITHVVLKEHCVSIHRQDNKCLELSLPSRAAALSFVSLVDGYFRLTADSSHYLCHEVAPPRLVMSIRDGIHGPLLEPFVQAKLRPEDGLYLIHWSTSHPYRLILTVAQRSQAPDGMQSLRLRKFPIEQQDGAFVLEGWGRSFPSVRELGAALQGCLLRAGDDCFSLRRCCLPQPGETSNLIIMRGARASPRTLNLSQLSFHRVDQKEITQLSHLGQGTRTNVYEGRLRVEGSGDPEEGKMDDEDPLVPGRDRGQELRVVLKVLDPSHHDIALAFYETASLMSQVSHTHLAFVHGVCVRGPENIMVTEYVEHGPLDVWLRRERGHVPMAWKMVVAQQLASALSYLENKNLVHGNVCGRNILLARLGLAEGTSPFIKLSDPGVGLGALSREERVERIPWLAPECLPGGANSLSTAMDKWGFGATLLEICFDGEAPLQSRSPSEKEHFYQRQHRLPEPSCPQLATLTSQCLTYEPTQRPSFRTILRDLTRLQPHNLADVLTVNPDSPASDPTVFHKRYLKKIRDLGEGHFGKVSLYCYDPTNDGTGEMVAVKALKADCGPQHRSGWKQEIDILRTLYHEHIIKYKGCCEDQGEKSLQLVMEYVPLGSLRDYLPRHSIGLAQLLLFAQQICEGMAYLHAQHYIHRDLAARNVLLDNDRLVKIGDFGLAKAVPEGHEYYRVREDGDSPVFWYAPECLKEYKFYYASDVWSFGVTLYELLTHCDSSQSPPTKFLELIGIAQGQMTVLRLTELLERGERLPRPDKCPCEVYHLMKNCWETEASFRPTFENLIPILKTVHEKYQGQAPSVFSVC
T3 sequence (P23458 whole entry): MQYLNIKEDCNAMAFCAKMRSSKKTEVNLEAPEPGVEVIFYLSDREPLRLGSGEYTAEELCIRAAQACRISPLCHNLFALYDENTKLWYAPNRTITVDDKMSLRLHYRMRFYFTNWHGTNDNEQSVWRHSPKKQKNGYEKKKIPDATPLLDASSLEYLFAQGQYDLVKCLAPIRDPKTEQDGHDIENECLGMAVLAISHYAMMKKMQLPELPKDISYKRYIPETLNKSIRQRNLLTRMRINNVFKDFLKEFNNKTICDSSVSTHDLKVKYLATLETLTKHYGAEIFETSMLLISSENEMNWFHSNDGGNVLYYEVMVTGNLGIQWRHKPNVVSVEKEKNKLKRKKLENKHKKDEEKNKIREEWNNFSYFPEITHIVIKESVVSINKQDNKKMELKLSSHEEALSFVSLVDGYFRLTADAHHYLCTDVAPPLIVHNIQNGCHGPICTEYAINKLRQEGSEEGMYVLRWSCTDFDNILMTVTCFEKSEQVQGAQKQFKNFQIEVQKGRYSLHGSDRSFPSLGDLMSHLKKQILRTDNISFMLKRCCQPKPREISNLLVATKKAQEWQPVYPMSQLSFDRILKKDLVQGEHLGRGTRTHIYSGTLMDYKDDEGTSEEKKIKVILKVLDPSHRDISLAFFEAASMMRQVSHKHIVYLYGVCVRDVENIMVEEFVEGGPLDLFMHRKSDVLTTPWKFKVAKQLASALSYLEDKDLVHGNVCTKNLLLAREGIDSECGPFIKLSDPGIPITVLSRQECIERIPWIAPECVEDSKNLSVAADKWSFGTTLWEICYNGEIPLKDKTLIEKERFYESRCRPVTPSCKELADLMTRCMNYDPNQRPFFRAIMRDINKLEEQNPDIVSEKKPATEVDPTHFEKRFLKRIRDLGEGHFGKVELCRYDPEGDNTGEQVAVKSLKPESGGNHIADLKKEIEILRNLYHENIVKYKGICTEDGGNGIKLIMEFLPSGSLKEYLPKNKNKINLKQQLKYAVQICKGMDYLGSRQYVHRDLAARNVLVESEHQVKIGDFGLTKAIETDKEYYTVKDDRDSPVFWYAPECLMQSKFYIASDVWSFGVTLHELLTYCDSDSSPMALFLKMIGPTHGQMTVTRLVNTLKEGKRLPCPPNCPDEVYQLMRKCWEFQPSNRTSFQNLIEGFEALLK
T4 sequence (O60674 whole entry): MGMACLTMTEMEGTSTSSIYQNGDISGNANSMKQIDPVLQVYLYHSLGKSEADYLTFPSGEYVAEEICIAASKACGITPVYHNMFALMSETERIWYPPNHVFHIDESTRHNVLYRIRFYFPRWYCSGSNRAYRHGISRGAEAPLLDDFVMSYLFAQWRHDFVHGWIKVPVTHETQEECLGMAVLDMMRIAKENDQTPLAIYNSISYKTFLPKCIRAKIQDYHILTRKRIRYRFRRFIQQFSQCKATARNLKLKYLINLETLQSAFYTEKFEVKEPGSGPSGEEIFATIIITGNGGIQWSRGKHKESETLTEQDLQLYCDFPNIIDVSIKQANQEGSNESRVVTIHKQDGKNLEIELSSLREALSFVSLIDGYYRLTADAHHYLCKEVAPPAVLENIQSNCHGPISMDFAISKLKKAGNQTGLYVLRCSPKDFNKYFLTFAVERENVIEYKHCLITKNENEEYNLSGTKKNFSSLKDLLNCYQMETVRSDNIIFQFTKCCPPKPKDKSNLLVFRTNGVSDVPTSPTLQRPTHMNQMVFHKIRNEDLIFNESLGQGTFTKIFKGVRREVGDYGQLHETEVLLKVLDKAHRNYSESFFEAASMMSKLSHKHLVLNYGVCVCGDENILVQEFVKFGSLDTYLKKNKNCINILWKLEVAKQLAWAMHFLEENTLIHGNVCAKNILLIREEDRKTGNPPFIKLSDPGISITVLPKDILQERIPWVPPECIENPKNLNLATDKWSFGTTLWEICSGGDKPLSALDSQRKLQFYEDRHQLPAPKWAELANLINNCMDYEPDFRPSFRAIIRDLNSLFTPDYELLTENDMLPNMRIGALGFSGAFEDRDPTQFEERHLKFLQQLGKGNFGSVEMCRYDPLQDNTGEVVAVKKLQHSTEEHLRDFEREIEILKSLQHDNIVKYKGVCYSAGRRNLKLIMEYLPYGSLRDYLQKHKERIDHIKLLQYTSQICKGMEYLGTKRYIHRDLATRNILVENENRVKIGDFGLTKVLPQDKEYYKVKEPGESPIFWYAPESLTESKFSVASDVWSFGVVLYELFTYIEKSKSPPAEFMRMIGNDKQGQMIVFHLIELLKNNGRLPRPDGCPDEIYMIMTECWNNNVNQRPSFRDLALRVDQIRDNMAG

As for `O=C(Nc1nc2cccc(-c3ccc(CN4CCS(=O)(=O)CC4)cc3)n2n1)C1CC1` [Filgotinib, filgotinib, reference compound], the IC50 is 3.4 µM in test [1] (TF-1, read-out: Cell based IC50 (μM) TF-1/GM-CSF); greater than 10 µM in [2]; 0.6 µM in test [3] (TF-1, read-out: Cell based IC50 (μM) TF-1/IL-6); 0.95 µM in [4] (HT2, read-out: Cell based IC50 (μM) HT-2/IL-2). In [5], the back skin thickness entry was “significant decrease”. The “cumulative psoriasis score compared to vehicle” value in test [5] is “statistically significant decrease”. Moreover, in [5], the ear thickness entry was “significant decrease”.
For `CS(=O)(=O)CC[C@@H](c1ccc(-n2cc(-c3ccnc4[nH]cnc34)cn2)nc1)C(F)(F)F` [Example 1181, 7-(1-(5-((S)-1,1,1-trifluoro-4-(methylsulfonyl)butan-2-yl)pyridin-2-yl)-1H-pyrazol-4-yl)-3H-imidazo[4,5-b]pyridine], the “efficacy (arthritis score) in collagen induced mouse arthritis model” value in test [6] is given as “very good efficacy”. The IC50 in test [1] (TF-1 cells, GM-CSF stimulation, read-out: Cell based IC50 (μM) TF-1/GM-CSF) was greater than 10 µM; in test [1] (TF-1 cells, GMCSF 5 ng/ml, pSTAT5 HTRF, read-out: Cell Based Assay (μM) TF-1/GMCSF/pSTAT5) it was greater than 1 µM; at Recombinant JAK3 (read-out: Biochemical IC50 (nM) JAK3) it was 42 nM; at Recombinant JAK3 (recombinant JAK3, TR-FRET, read-out: Biochemical Assay (μM) JAK3), less than 100 nM; at Recombinant TYK2 (read-out: Biochemical IC50 (nM) TYK2), greater than 1 nM; at Recombinant TYK2 (recombinant TYK2, TR-FRET, read-out: Biochemical Assay (μM) TYK2), greater than 1000 nM. Besides, the IC50 was 15 nM at Recombinant JAK1 (read-out: Biochemical IC50 (nM) JAK1); less than 100 nM at Recombinant JAK1 (recombinant JAK1, TR-FRET, read-out: Biochemical Assay (μM) JAK1); 105 nM on Recombinant JAK2; greater than 10 µM in test [2]; greater than 0.5 µM in [3] (TF-1, TF-1 cells, IL-6 30 ng/ml, pSTAT3 HTRF, read-out: Cell Based Assay (μM) TF-1/IL-6/pSTAT3); 0.35 µM in [3] (TF-1, TF-1 cells, IL-6 stimulation, read-out: Cell based IC50 (μM) TF-1/IL-6). The IC50 in test [4] (HT2, HT-2 cells, IL-2 50 U/ml, pSTAT5 HTRF, read-out: Cell Based Assay (μM) HT-2/IL-2/pSTAT5) was greater than 1 µM; in test [4] (HT2, HT-2 cells, IL-2 stimulation, read-out: Cell based IC50 (μM) HT-2/IL-2), 0.9 µM.

Values taken from patent US12516056B2, “Compounds for inhibition of janus kinase 1” (MANKIND PHARMA LTD., priority 2019, dated 2026).
